Series [1] deals with HUVEC. The experiment in a line: Cytotoxicity against TNFalpha-stimulated HUVEC at 10 uM after 6 hrs by MTT assay. The series is classed as cell-based. Particulars: human.
In series [2] the test system is HUVEC. Put plainly: Induction of VCAM1 expression in HUVEC after 1 hr by ELISA. It is filed as cell-based. The note with it: human. (In an ELISA, binding on a coated surface is turned into a signal by an enzyme label.)
The test system of series [3] is HUVEC. The experiment in a line: Induction of ICAM1 expression in HUVEC after 1 hr by flow cytometry analysis. The series is classed as cell-based. The note with it: human. (In flow cytometry, cells or beads pass a laser one at a time.)
The test system of series [4] is HUVEC. The experiment in a line: Induction of E-selectin expression in HUVEC after 1 hr by flow cytometry analysis. The series is classed as cell-based. The note with it: human.
The subject of series [5] is HUVEC. The experiment in a line: Antiinflammatory activity in HUVEC assessed as inhibition of TNFalpha-induced VCAM1 expression at 10 uM after 1 hr by flow cytometry analysis. It is filed as functional. The note with it: Homo sapiens.
In series [6] the test system is HUVEC. Put plainly: Antiinflammatory activity in HUVEC assessed as inhibition of TNFalpha-induced ICAM1 expression at 10 uM after 1 hr by flow cytometry analysis. It is filed as functional. The note with it: Homo sapiens.
Series [7] has as its system HUVEC. The experiment in a line: Antiinflammatory activity in HUVEC assessed as inhibition of TNFalpha-induced VCAM1 expression after 1 hr by flow cytometry analysis. The series is classed as functional, cell-based. Particulars: Homo sapiens.
Series [8] concerns HUVEC. The experiment in a line: Antiinflammatory activity in HUVEC assessed as inhibition of TNFalpha-induced E-selectin expression at 10 uM after 1 hr by flow cytometry analysis. The series is classed as functional, cell-based. Particulars: Homo sapiens.
Series [9] relates to HUVEC. Put plainly: Antiinflammatory activity in HUVEC assessed as inhibition of HLA-E expression at 10 uM after 1 hr by flow cytometry analysis. It is filed as functional, cell-based. The note with it: Homo sapiens.
Series [10] concerns HUVEC. The experiment in a line: Antiinflammatory activity in HUVEC assessed as inhibition of MICA expression at 10 uM after 1 hr by flow cytometry analysis. The note with it: Homo sapiens. The series is classed as functional, cell-based.
Series [11] deals with HUVEC. The experiment in a line: Antiinflammatory activity in HUVEC assessed as inhibition of HLA-I expression at 10 uM after 1 hr by flow cytometry analysis. It is filed as functional, cell-based. Particulars: Homo sapiens.
Series [12] concerns HUVEC. The experiment in a line: Antiinflammatory activity in HUVEC assessed as inhibition of IFNgamma-induced HLA-E expression at 10 uM after 1 hr by flow cytometry analysis. Particulars: Homo sapiens. The series is classed as functional.
Series [13] has as its system HUVEC. Put plainly: Antiinflammatory activity in HUVEC assessed as inhibition of IFNgamma-induced HLA-II expression at 10 uM after 1 hr by flow cytometry analysis. It is filed as functional. Particulars: Homo sapiens.
Series [14] in a line: Inhibition of vesperlysine-type advanced glycation end products formation using bovine serum albumin after 24 hrs by microtiter plate assay. It is filed as functional.
Series [15] in a line: Inhibition of pentosidine-type advanced glycation end products formation using bovine serum albumin after 24 hrs by microtiter plate assay. It is filed as functional.

Structures are written as SMILES. Values after ≈ are worked out from the molar mass of the structure shown. Active and inactive are the calls of the source. No cut-off for these calls is given here.

Results on two compounds are retold here after ChEMBL document CHEMBL3608262, “Lepidotol A from Mesua lepidota Inhibits Inflammatory and Immune Mediators in Human Endothelial Cells” (J Nat Prod, 2015).

As a reminder, the inhibition is the relative decrease from the control value, in per cent. In general, IC50 refers to the concentration at which inhibition is half-maximal. For `CC(C)=CCC1(CC=C(C)C)C(=O)c2c(-c3ccccc3)cc(=O)oc2C(C(=O)C(C)C)=C1O`, the Activity entry in [1], in series [2], in series [3] and in series [4] was “Non-toxic” in each case. The inhibition at 10 µM in series [5] is at most 52%; in series [6] it was at most 23%; in [12] it was at most 95%; in [13], at most 95%. The IC50 in series [7] was 10.2 µM. The inhibition entry in series [8] and in series [11] was “inactive” each time. The inhibition entry in series [9] and in series [10] was “Active” throughout.
For `N=C(N)NN` [PIMAGEDINE], the IC50 in series [14] turned out to be 0.7 mg/mL (≈ 9.45 mM); in series [15], 0.15 mg/mL (≈ 2.02 mM).
